Experimental data reported in ChEMBL document CHEMBL5038615, “Discovery of a cinnamyl piperidine derivative as new neddylation inhibitor for gastric cancer treatment” (Eur J Med Chem, 2021).
Active and inactive are the calls of the source. The calls are words filed in the database; no cut-off is given here.

Legend:
MGC-803 [1] = assay: Antiproliferative activity against human MGC-803 cells assessed as inhibition of cell proliferation measured after 72 hrs by MTT assay; type: functional, cell-based; details: MGC-803, 72 h
A549 = assay: Antiproliferative activity against human A549 cells assessed as inhibition of cell proliferation measured after 72 hrs by MTT assay; type: functional, cell-based; details: A549, 72 h
HGC-27 [2] = assay: Antiproliferative activity against human HGC-27 cells assessed as inhibition of cell proliferation measured after 72 hrs by MTT assay; type: functional, cell-based; details: HGC-27, 72 h
MGC-803 [3] = assay: Antiproliferative activity against human MGC-803 cells assessed as inhibition of cell proliferation at 0.39 to 50 uM measured upto 72 hrs by MTT assay; type: functional, cell-based; details: dose 0.39-50 µM, time hrs <=72
MGC-803 [4] = assay: Cell cycle arrest in human MGC-803 cells assessed as accumulation of cells at S phase at 2.5 uM measured after 24 hrs by Flowcytometry assay (reference value: 36.51%); type: functional
MGC-803 [5] = assay: Cell cycle arrest in human MGC-803 cells assessed as accumulation of cells at G0/G1 phase at 7.5 uM measured after 24 hrs by Flowcytometry assay (reference value: 46.01%); type: functional
MGC-803 [6] = assay: Inhibition of cell migration in human MGC-803 cells at 1.25 to 5 uM measured after 24 to 48 hrs by wound healing assay based inverted microscopic analysis; type: functional; details: dose 1.25-5 µM, time 24-48 hrs
HGC-27 [7] = assay: Inhibition of cell migration in human HGC-27 cells at 1.5 to 6 uM measured after 24 to 48 hrs by wound healing assay based inverted microscopic analysis; type: functional; details: dose 1.5-6 µM, time 24-48 hrs
MGC-803 [8] = assay: Induction of apoptosis in human MGC-803 cells assessed as late apoptotic cells at 7.5 uM measured after 24 hrs by AnnexinV/FITC staining based flow cytometry method (reference value: 2%); type: functional
MGC-803 [9] = assay: Induction of apoptosis in human MGC-803 cells assessed as necrotic cells at 5 uM measured after 48 hrs by AnnexinV/FITC staining based flow cytometry method (reference value: 0.2%); type: functional
MGC-803 [10] = assay: Induction of apoptosis in human MGC-803 cells assessed as viable cells at 7.5 uM measured after 48 hrs by AnnexinV/FITC staining based flow cytometry method (reference value: 97.4%); type: functional; details: read-out: Activity
MGC-803 [11] = assay: Induction of apoptosis in human MGC-803 cells assessed as early apoptotic cells at 7.5 uM measured after 48 hrs by AnnexinV/FITC staining based flow cytometry method (reference value: 1.5%); type: functional
MGC-803 [12] = assay: Induction of apoptosis in human MGC-803 cells assessed as necrotic cells at 7.5 uM measured after 48 hrs by AnnexinV/FITC staining based flow cytometry method (reference value: 0.2%); type: functional
HGC-27 [13] = assay: Induction of apoptosis in human HGC-27 cells assessed as necrotic cells at 3 uM measured after 24 hrs by AnnexinV/FITC staining based flow cytometry method (reference value: 1.2%); type: functional
HGC-27 [14] = assay: Induction of apoptosis in human HGC-27 cells assessed as necrotic cells at 9 uM measured after 24 hrs by AnnexinV/FITC staining based flow cytometry method (reference value: 1.2%); type: functional
HGC-27 [15] = assay: Induction of apoptosis in human HGC-27 cells assessed as early apoptotic cells at 3 uM measured after 48 hrs by AnnexinV/FITC staining based flow cytometry method (reference value: 5.8%); type: functional
HGC-27 [16] = assay: Induction of apoptosis in human HGC-27 cells assessed as viable cells at 9 uM measured after 48 hrs by AnnexinV/FITC staining based flow cytometry method (reference value: 93.18%); type: functional; details: read-out: Activity
HGC-27 [17] = assay: Induction of apoptosis in human HGC-27 cells assessed as early apoptotic cells at 9 uM measured after 48 hrs by AnnexinV/FITC staining based flow cytometry method (reference value: 5.8%); type: functional
HGC-27 [18] = assay: Induction of apoptosis in human HGC-27cells assessed as reduction of mitochondrial membrane potential at 6 uM measured after 24 hrs by JC-1 staining based Flowcytometry assay (reference value: 2.4%); type: functional; set-up: scale not given: the % may be the effect or the level left
HGC-27 [19] = assay: Induction of apoptosis in human HGC-27 cells assessed as reduction of mitochondrial membrane potential at 9 uM measured after 24 hrs by JC-1 staining based Flowcytometry assay (reference value: 2.4%); type: functional; set-up: scale not given: the % may be the effect or the level left
MGC-803 [20] = assay: Induction of apoptosis in human MGC-803 cells assessed as upregulation of Bax at 2.5 to 7.5 uM measured after 24 hrs by Western blot assay; type: functional, cell-based; details: dose 2.5-7.5 µM
MGC-803 [21] = assay: Induction of apoptosis in human MGC-803 cells assessed as down-regulation of Keap1 expression at 2.5 to 7.5 uM measured after 24 hrs by Western blot assay; type: functional, cell-based; details: dose 2.5-7.5 µM
MGC-803 [22] = assay: Induction of apoptosis in human MGC-803 cells assessed as up-regulation of Nrf2 expression at 2.5 to 7.5 uM measured after 24 hrs by Western blot assay; type: functional, cell-based; details: dose 2.5-7.5 µM
MGC-803 [23] = assay: Induction of apoptosis in human MGC-803 cells assessed as down-regulation of Nrf2 expression in nucleus at 2.5 to 7.5 uM measured after 24 hrs by Western blot assay; type: functional, cell-based; details: dose 2.5-7.5 µM
MGC-803 [24] = assay: Antitumour activity against human MGC-803 cells xenografted in NOD-SCID mouse assessed as reduction on tumour growth at 100 mg/kg/day, IG measured after 21 days relative to control; type: functional; details: MGC-803, po, 504 h, time 21 day, read-out: TGI
[25] = target: T1, NEDD8-activating enzyme E1 regulatory subunit (Homo sapiens) (UniProt Q13564); assay: Inhibition of NAE-mediated neddylation in human MGC-803 cells assessed as cullin3-Nedd8 adduct formation at 2.5 to 7.5 uM measured after 24 hrs by western blot assay; type: cell-based; details: dose 2.5-7.5 µM
T1 sequence (whole entry): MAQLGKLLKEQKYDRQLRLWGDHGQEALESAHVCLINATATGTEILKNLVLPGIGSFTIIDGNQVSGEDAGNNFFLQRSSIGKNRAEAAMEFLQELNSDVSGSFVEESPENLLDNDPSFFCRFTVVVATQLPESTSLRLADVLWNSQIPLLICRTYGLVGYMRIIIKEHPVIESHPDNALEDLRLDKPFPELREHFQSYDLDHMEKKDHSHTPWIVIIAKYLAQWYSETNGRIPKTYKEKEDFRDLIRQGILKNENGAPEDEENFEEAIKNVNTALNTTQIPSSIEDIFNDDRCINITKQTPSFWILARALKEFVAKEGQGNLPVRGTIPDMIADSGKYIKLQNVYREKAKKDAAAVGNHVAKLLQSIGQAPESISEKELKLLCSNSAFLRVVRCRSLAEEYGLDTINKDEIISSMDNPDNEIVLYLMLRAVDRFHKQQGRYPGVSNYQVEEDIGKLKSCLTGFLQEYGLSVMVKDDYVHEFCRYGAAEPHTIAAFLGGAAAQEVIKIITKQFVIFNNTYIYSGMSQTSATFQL

[26] = target: T1, NEDD8-activating enzyme E1 regulatory subunit (Homo sapiens); assay: Inhibition of NAE-mediated neddylation in human MGC-803 cells assessed as cullin5-Nedd8 adduct formation at 2.5 to 7.5 uM measured after 24 hrs by western blot assay; type: cell-based; details: dose 2.5-7.5 µM
[27] = target: T1, NEDD8-activating enzyme E1 regulatory subunit (Homo sapiens); assay: Inhibition of NAE-mediated neddylation in human MGC-803 cells assessed as cullin4A-Nedd8 adduct formation at 2.5 to 7.5 uM measured after 24 hrs by western blot assay; type: cell-based; details: dose 2.5-7.5 µM

IC50 (MGC-803 [1]): 2.55 µM
IC50 (A549): 3.88 µM
inhibition [25]: Active
inhibition [26]: Active
inhibition [27]: inactive
SMILES: CCCCCc1ccc(NC(=O)C2CCN(C/C=C/c3ccccc3)CC2)cc1
IC50 (HGC-27 [2]): 3.17 µM
Activity (MGC-803 [3]): Dose-Dependent Effect
Activity (MGC-803 [4]): 33.01%
Activity (MGC-803 [5]): 37.06%
Activity (MGC-803 [6]): Dose-Dependent Effect
inhibition (HGC-27 [7]): Dose-Dependent Effect
Activity (MGC-803 [8]): 82.4%
Activity (MGC-803 [9]): 0.8%
viability at 7.5 µM (MGC-803 [10]): 0.4%
Activity (MGC-803 [11]): 4%
Activity (MGC-803 [12]): 0%
Activity (HGC-27 [13]): 0.4%
Activity (HGC-27 [14]): 2.7%
Activity (HGC-27 [15]): 6.2%
viability at 9 µM (HGC-27 [16]): 0.3%
Activity (HGC-27 [17]): 0.2%
Activity (HGC-27 [18]): 45.3%
Activity (HGC-27 [19]): 58%
Activity (MGC-803 [20]): Dose-Dependent Effect
Activity (MGC-803 [21]): Active
Activity (MGC-803 [22]): Active
Activity (MGC-803 [23]): Active
inhibition in vivo at 100 mg/kg/day (MGC-803 [24]): 39.2%
